Source: PMC4721142, “Randomized controlled studies on the efficacy of antiarthritic agents in inhibiting cartilage degeneration and pain associated with progression of osteoarthritis in the rat” (Arthritis Research & Therapy, 2016)
Values joined by “and” are separate entries in the source; they are usually repeats but may differ in a detail not shown here. Identical values can stand only once.

Columns and labels:
Type in all cases: in vivo
MIA rat model of OA = experiment: MIA trial 1 weight bearing (daily s.c. clonidine 0.1, fluocinolone 0.002, morphine 6 mg/kg)
Method: (§1) Weight bearing (WB; incapacitance) was measured five times per day, once per week, using a Linton incapacitance meter (Stoelting Co., Wood Dale, IL, USA). Rats were acclimated to the meter before study initiation, and, similarly, immediately before WB, the animals were placed in the meter and allowed to acclimate for 2–5 minutes. Each hind paw was placed on a separate force plate so that the force exerted by each side could be averaged over a 5-second interval, and the mean of three readings was taken for each data point. Right paw force was compared with that on the left side for each group to confirm that animals were displaying incapacitance and/or pain behavior. Differences in force (left minus right) and right paw force as a percentage of the total force exerted by both paws were determined and compared between groups.
Following isoflurane anesthesia, 50 μl (2 mg) of MIA was injected into the synovial space of the left knee. Animals were randomly assigned to groups, and pain behavior was assessed 7, 14, 21, and 28 days following MIA injection and intervention using WB with the Stoelting incapacitance meter (trial 1) or the dRS test (trials 2 and 3). […] Animals received MIA treatment and then saline control or therapeutic. […] Histopathology was performed at each time point and at study termination. All studies were conducted in accordance with the International Association for the Study of Pain Guidelines and were approved by the Algos Therapeutics, Inc. Institutional Animal Care and Use Committee (IACUC) before initiation. Those running the studies were blind to the treatments. See Additional file 1 for further details. […]
dosing were housed three per cage. Animals had free access to food and water and were maintained […]
The animal colony was maintained at approximately 21 °C. All experiments were conducted in accordance with the International Association for the Study of Pain Guidelines.

MMT/MCLT rat model of OA [1] = experiment: MMT/MCLT trial 1 histopathology (same doses); details: low or only dose
Description: For MMT/MCLT rat knee joints, sections were cut in 200-μm steps; stained with toluidine blue (also with a right and left half per section); and similarly analyzed for cartilage degeneration, proteoglycan loss, collagen damage, and osteophyte formation. Results were averaged across the three sections for an overall semiquantitative score. Regional differences across the tibial plateau were taken into consideration by dividing each section into three zones delineated using an ocular micrometer (outside, middle, and inside). Scores were based on the percentage of area affected within the zone.
Cartilage degeneration in the tibia was scored on a 5-point scale as detailed in the Methods section of Additional file 1. The total extent of degeneration of the tibial plateau was measured (in micrometers) and included an analysis of cell loss, proteoglycan loss, and collagen damage. Significant cartilage degeneration reflecting any degeneration extending through more than 50 % of the cartilage thickness was also measured. Collagen damage across the medial tibial plateau (the most severely affected section of the two halves) was also quantified.
Osteophytes and femoral cartilage degeneration were analyzed as detailed in Additional file 1. Scoring of the osteophytes and categorization into small, medium, and large was performed using an ocular micrometer. The actual osteophyte measurement (tidemark to farthest distance point extending toward the synovium) was also recorded. The femoral cartilage degeneration score and the three-zone sum of the tibial cartilage degeneration scores (mean of three levels) were summed to create a total cartilage degeneration score. The mean osteophyte score for each joint was added to this value to create a total joint score. […]
Histopathology MMT/MCLT Model

MMT/MCLT rat model of OA [2] = experiment: MMT/MCLT trial 1 weight bearing (daily morphine 10 mg/kg, tacrolimus 0.3 or 0.6 mg/kg, fluocinolone 5 or 10 μg/kg, clonidine 100 μg/kg, alendronate 10 μg/kg i.p.; curcumin, withaferin 50 mg/kg p.o.); details: low or only dose
Method: as §1
Following isoflurane anesthesia, the medial collateral ligament was transected just below its attachment to the meniscus in the right knee. The meniscus was cut at its narrowest point away from the ossicles so as not to damage the tibial surface and to ensure that the anterior and posterior meniscus halves were freely movable. […] In trial 2, drugs were administered IA weekly beginning 1 week following surgery. Three weeks postsurgery, animals were humanely killed and their right knees were collected for histopathology. All studies were conducted in accordance with the International Association for the Study of Pain Guidelines and were approved by the Bolder BioPATH IACUC (Boulder, CO, USA) in compliance with regulations before study initiation (IACUC protocol BBP03-006). Those running the studies were blinded to the treatments. See Additional file 1 for further details.
Isoflurane and the right knee area prepared for surgery. A skin incision was made over the medial aspect of the knee and the medial collateral ligament was exposed by blunt dissection and then transected. The medial meniscus was cut through the full thickness to simulate a complete tear and the skin was then closed with suture.
All pharmaceutical agents were prepared and stored as recommended by the supplier. Daily drug preparations were made fresh from stock solutions. […]
In Trial 2 drugs were […]
administered IA weekly beginning one week following surgery. […]
were delivered by gavage and were prepared in 0.3% Methyl Cellulose.
WB was measured five times a day, once a week, using a Linton incapacitance meter (Stoelting Co.) to assess pain behavior. Rats were acclimated to the incapacitance meter prior to study initiation.
Similarly, immediately prior to WB animals were placed in the incapacitance meter and allowed to acclimate for 2-5 minutes. Each hind paw was placed on a separate force plate so that the force exerted by each side could be averaged over a 5 second interval and the mean of three readings taken for each data point. Right paw force was compared to left for each group to confirm that animals were displaying incapacitance / pain behavior. Difference in force (left minus right) and right paw force as a percentage of the total force exerted by both paws were determined and compared between groups. Three weeks after surgery, animals were humanely euthanized and right knees collected for histopathology evaluation.
Figure 2. MMT/MCLT Trial Timeline […]
MMT/MCLT Dosing (once/day)
The study design and animal usage was approved by Bolder BioPATH’s Institutional Animal Care and Use Committee (IACUC) for compliance with regulations prior to study initiation (IACUC […]
Labs. Animals were identified by a distinct mark at the base of the tail delineating group and animal number. After randomization, all cages were labeled with protocol number, group numbers, and animal numbers with appropriate color-coding (see protocol).

CN1CC[C@]23c4c5ccc(O)c4O[C@H]2[C@@H](O)C=C[C@H]3[C@H]1C5 [Morphine]
Weight bearing, hours after dosing with significant difference (MIA rat model of OA; day 14): 1 h | Weight bearing, hours after dosing with significant difference (MIA rat model of OA; day 21, BL baseline): BL, 1, 3 | Bone score (MMT/MCLT rat model of OA [1]; mean): 3.63 | Depth ratio any matrix change, mean (MMT/MCLT rat model of OA [1]; mean): 0.34 | Depth ratio any matrix change, zone 2 (MMT/MCLT rat model of OA [1]; mean): 0.11 | Femoral cartilage degeneration score (MMT/MCLT rat model of OA [1]; mean): 2.33 and 2.33 ± 0.66 | Tibial cartilage degeneration score, 3-zone total (MMT/MCLT rat model of OA [1]; mean): 6.21 | Tibial cartilage degeneration score, zone 1 (MMT/MCLT rat model of OA [1]; mean): 4.25 | Tibial cartilage degeneration score, zone 2 (MMT/MCLT rat model of OA [1]; mean): 1.92 | Tibial cartilage degeneration score, zone 3 (MMT/MCLT rat model of OA [1]; mean): 0.04 | Tibial cartilage degeneration width, significant (MMT/MCLT rat model of OA [1]; mean): 666.67 µm | Tibial cartilage degeneration width, total (MMT/MCLT rat model of OA [1]; mean): 1279.17 µm | Tibial osteophyte measure (MMT/MCLT rat model of OA [1]; mean): 573.75 µm | Tibial osteophyte score (MMT/MCLT rat model of OA [1]; mean): 4.42 | Total joint score (MMT/MCLT rat model of OA [1]; mean): 12.96 and 12.96 ± 0.89 | Total joint score w/o femur (MMT/MCLT rat model of OA [1]; mean): 10.63 | % decrease, bone score (MMT/MCLT rat model of OA [1]; vs saline group): -12% | % decrease, depth ratio mean (MMT/MCLT rat model of OA [1]; vs saline group): 5% | % decrease, depth ratio zone 2 (MMT/MCLT rat model of OA [1]; vs saline group): 42% | % decrease, femoral cartilage degeneration score (MMT/MCLT rat model of OA [1]; vs saline group): -27% | % decrease, osteophyte measure (MMT/MCLT rat model of OA [1]; vs saline group): -12% | % decrease, osteophyte score (MMT/MCLT rat model of OA [1]; vs saline group): -13% | % decrease, significant degeneration width (MMT/MCLT rat model of OA [1]; vs saline group): 8% | % decrease, tibial score 3-zone total (MMT/MCLT rat model of OA [1]; vs saline group): 5% | % decrease, tibial score zone 1 (MMT/MCLT rat model of OA [1]; vs saline group): 1% | % decrease, tibial score zone 2 (MMT/MCLT rat model of OA [1]; vs saline group): 13% | % decrease, tibial score zone 3 (MMT/MCLT rat model of OA [1]; vs saline group): 0% | % decrease, total degeneration width (MMT/MCLT rat model of OA [1]; vs saline group): 3% | % decrease, total joint score (MMT/MCLT rat model of OA [1]; vs saline group): -5% | % decrease, total joint score w/o femur (MMT/MCLT rat model of OA [1]; vs saline group): -2% | Weight bearing, hours with significant effect (MMT/MCLT rat model of OA [2]; day 7): 1 h | Weight bearing, hours with significant effect (MMT/MCLT rat model of OA [2]; day 21): 3,5 h
